# Test results reported in PubChem BioAssay AID1324 (NMMLSC, 2008).
# Calls of active or inactive are those of the source. No rule for the calls is given here.
# Biological target: glutathione S-transferase (GST-GSH binding)
# Assay: GST–glutathione interaction disruption – biochemical, multiplex beads, flow cytometry, HPSMTB buffer, profiling panel (AID 1324);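 also: glutathione beads loaded with GST-green fluorescent protein and no fluorescent Bim peptide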
# Settings: multiplex bead flow cytometry, MCF
row,Compound,EC50
1,Cc1cccc(N=C2NC(=O)/C(=C/C=C/c3ccco3)S2)c1C,inactive
2,CC1=CC(=O)c2c(O)ccc(O)c2C1=O,inactive
3,O=c1c2c(-c3ccccc3)csc2nc2c3ccccc3c(NCCN3CCOCC3)nn12,210 nM
4,Cc1ccnc(Nc2nc(-c3c(C)nc4sccn34)cs2)c1,inactive

# Same assay, conditions: multiplex bead flow cytometry, MCF, active compounds read high, concentration not given here
row,Compound,percent span inhibition
1,COc1ccc2nc(C)cc(SCC(=O)N/N=C/c3ccc(O)cc3O)c2c1,inactive
2,Cc1nn(-c2ccc(Cl)cc2)c(Cl)c1/C=C(\C#N)C(N)=O,inactive
3,CC1Cc2ccccc2N1C(=O)CSc1nnnn1-c1ccc2c(c1)OCCO2 (centres undefined),inactive
4,O=C(Nc1cccc(Cl)c1)Nc1ccc(Cl)cn1,inactive
5,O=C(c1cnccn1)N1CCN(c2ccccc2F)CC1,inactive
6,O=C(Nc1ccc2nc(-c3ccco3)c(-c3ccco3)nc2c1)N1CCN(c2ccccn2)CC1,inactive
7,CC1=C2C(CCS2(=O)=O)CC2(C1)C(=O)OC(C)(C)OC2=O (centres undefined),inactive
8,O=[N+]([O-])c1c(NCCO)cc(Sc2nc3ccccc3s2)c2nonc12,inactive
9,CC(=O)c1ccc2c(c1)C1C=CCC1C(c1ccncc1)N2 (centres undefined),inactive
10,COc1ccc(OC)c2sc(NC(=O)c3ccc(Br)s3)nc12,inactive
11,COc1cc(/C=C2\SC(=S)NC2=O)ccc1OS(=O)(=O)c1ccccc1,inactive
12,Cc1cc(-c2csc(N)n2)c(C)n1CCc1ccccc1,inactive
13,O=C(C1CCC(Cn2c(=S)[nH]c3ccccc3c2=O)CC1)N1CCN(c2ccccn2)CC1 (centres undefined),inactive
14,O=C(Nc1nnc(COc2ccc(Cl)cc2)s1)c1ccco1,inactive
15,Cn1c(N)c(C(=O)COC(=O)c2cc(-c3ccco3)nc3ccccc23)c(=O)n(Cc2ccccc2)c1=O,inactive
16,Cc1ccc(NC(=O)CSc2nc3ccccc3c(=O)n2CCCN2CCCCC2)cc1Cl,inactive
17,CNC(CC(=O)c1ccc([N+](=O)[O-])cc1)C(Cl)(Cl)Cl (centres undefined),inactive
18,COc1ccc(CC(=O)Nc2ccc3nc(C)sc3c2)cc1OC,inactive
19,COc1ccc2cc(CN(CCc3ccccc3)Cc3nnnn3CC3CCCO3)c(=O)[nH]c2c1 (centres undefined),inactive
20,Clc1ccc2c(N/N=C/c3ccc(Br)cc3)ccnc2c1,inactive
21,Cc1ccc(-c2cc(C(=O)Nc3nccs3)c3ccccc3n2)o1,inactive
22,CCOC(=O)c1nn(-c2ccccc2)c(C#N)c1N,inactive
23,Cc1ccc(S(=O)(=O)N(C)CC(=O)N2CCc3ccccc32)cc1,inactive
24,CNc1ccccc(C(=O)/C=C/c2ccccc2OC)c1=O,inactive

row,Compound,percent span inhibition
1,C/C(=C\c1ccco1)C1Nc2cccc3cccc(c23)N1,inactive
2,O=C(NCc1ccccc1)c1ccc2nc(-c3ccco3)c(-c3ccco3)nc2c1,inactive
3,CCN(CC)c1ccc(NC(=O)COc2ccccc2C#N)cc1S(=O)(=O)Nc1ccccc1OC,inactive
4,Cc1ccc(OCc2cn3cccnc3n2)cc1,inactive
5,CCOC(=O)C1=C(Cc2ccc(OC)cc2)C(=O)c2ccccc2C1=O,inactive
6,COc1ccc(OC)c(-n2c(-c3ccc(C)cc3)n[nH]c2=S)c1,inactive
7,O=C(NC1=C(Nc2ccc(F)cc2)C(=O)c2ccccc2C1=O)c1ccc(Cl)cc1,inactive
8,Cc1ccc(C(=O)N/N=C2/NC(=O)CC(C(=O)Nc3ccccc3)S2)cc1 (centres undefined),inactive
9,Cn1c(=O)c2cc(S(=O)(=O)Nc3cc(C(=O)O)cc(C(=O)O)c3)ccc2n(C)c1=O,inactive
10,CC1N(C)c2cccc3cccc(c23)N1C,inactive
11,COc1ccc(S(=O)(=O)NCCSc2ccccc2)cc1OC,inactive
12,COc1cc(NC(=S)NC(=O)c2cc(C)cc(C)c2)ccc1NC(=O)c1cccs1,inactive
13,CC(=O)OCCCNc1cc(Sc2nc3ccccc3s2)c2nonc2c1[N+](=O)[O-],inactive
14,N/C(=N\N=C/c1ccc(Br)cc1)N/N=C\c1ccc(Br)cc1,inactive
15,Cc1cc(C)c2c(N)c3cccc(C)c3nc2n1,inactive
16,Cc1cccc(Nc2nc(-c3ccncc3)cs2)c1,inactive
17,CN1CCS/C1=C/C=C1/SC(=S)N(Cc2ccccc2)C1=O,inactive
18,O=C(Nc1cccc(-c2ccc3nncn3n2)c1)c1ccco1,inactive
19,COC(=O)c1sc(NC(=O)c2ccc(Cn3cc(Cl)cn3)o2)c(C#N)c1C,inactive
20,CCN(CC)CCN(C(=O)c1ccc(N2C(=O)CCC2=O)cc1)c1nc2cc3c(cc2s1)OCCO3,inactive
21,O=C1C(=O)c2ccc(-c3ccccc3)cc2-c2ccccc21,inactive
22,O=S1(=O)N=C(N(CCO)/N=C/c2ccccc2)c2ccccc21,inactive
23,Cc1ccc(/C=C/C(=O)c2ccccc(=O)c2O)cc1C,inactive
24,COc1ccc(N2C(=O)/C(=C/c3cccs3)NC2=S)cc1,inactive

row,Compound,percent span inhibition
1,c1ccc(-c2nc(N3CCOCC3)s[n+]2-c2ccccc2)cc1,inactive
2,CCOc1cc(S(=O)(=O)Nc2ccccn2)ccc1F,inactive
3,COc1ccccc1NC(=O)CSc1nnc(-c2ccco2)n1Cc1ccco1,inactive
4,Cc1ccc(/C=N/NC(=O)CSc2nnc(-c3ccc(Cl)cc3)n2-c2ccccc2)o1,inactive
5,COC(=O)c1ccc(-n2nnnc2SCC(=O)Nc2cc(OC)ccc2OC)cc1,inactive
6,COc1ccc(C)cc1Nc1ccc(C(=O)O)cc1[N+](=O)[O-],inactive
7,COc1ccc(CC(=O)Nc2ccc(C(=O)Nc3nccs3)cc2)cc1OC,inactive
8,CC(=O)NC(=O)Nc1sc(=S)n(C)c1C,inactive
9,O=C(Nc1ccncc1)c1cc2ccccc2o1,inactive
10,CN1C(=O)/C(=C/c2ccc(-c3ccccc3[N+](=O)[O-])o2)SC1=Nc1ccc(Cl)c(C(=O)O)c1,inactive
11,COc1ccc(S(=O)(=O)NCCOc2cccc3cccnc23)cc1OC,inactive
12,COc1ccccc1-n1c(SCC(=O)N2CCc3ccccc32)nc2c(c1=O)SCC2,inactive
13,CN(Cc1cccs1)C(=O)CCc1c[nH]c2ccccc12,inactive
14,O=C(/C=C/c1c(F)cccc1Cl)Nc1ccncc1,inactive
15,FC(F)(F)c1ccc2c(c1)C1C=CCC1C(c1ccncc1)N2 (centres undefined),inactive
16,CC(C)C(=O)N1CCN(c2ccc([N+](=O)[O-])cc2Cl)CC1,inactive
17,Cc1cccn2c(=O)c3cc(C(N)=S)c(=N)n(CCCN4CCOCC4)c3nc12,inactive
18,Cc1cc(Cl)c(S(=O)(=O)NCC2CCCO2)cc1OCC(N)=O (centres undefined),inactive
19,O=C1NC(=S)S/C1=C/c1ccc(N2CCOCC2)o1,inactive
20,O=S1(=O)N=C(N(CCO)/N=C/C=C/c2ccccc2)c2ccccc21,inactive
21,O=C(NC1=C(NC2CCS(=O)(=O)C2)C(=O)c2ccccc2C1=O)c1ccccc1 (centres undefined),inactive
22,Cc1cc(C)cc(-n2c(C)nc3cc(C(=O)O)ccc32)c1,inactive
23,CNC(=S)N(Cc1cccs1)Cc1cc2ccc(OC)cc2[nH]c1=O,inactive
24,CNC(=O)c1c(N)sc2c1CCCCC2,inactive

row,Compound,percent span inhibition
1,C#CCOCCOCCOCCNc1nc(N2CCN(C(=O)[C@H]([C@@H](C)CC)n3cc([C@@H](N)CC(C)C)nn3)CC2)nc(N2CCN(C(=O)[C@H](Cc3cc4ccccc4[nH]3)n3cc([C@@H](N)Cc4ccc(O)cc4)nn3)CC2)n1,inactive
2,COc1ccc(N2CCN(C(CNS(=O)(=O)c3ccc4c(c3)OCCO4)c3ccco3)CC2)cc1 (centres undefined),inactive
3,C=CCN1C(=O)/C(=C/c2ccsc2)SC1=S,inactive
4,CNCc1ccccc1Sc1cc(O)ccc1O,inactive
5,Cc1ccc(-c2cc(C(=O)Nc3ccccn3)c3ccccc3n2)o1,inactive
6,CN(CCO)c1cc(Sc2nc3ccccc3s2)c2nonc2c1[N+](=O)[O-],inactive
7,Fc1ccc(Cn2nnnc2C(c2ccc(Cl)cc2)N2CCSCC2)cc1 (centres undefined),inactive
8,Cc1onc(-c2ccccc2Cl)c1C(=O)Nc1nn[nH]n1,inactive
9,O=c1[nH]c2ccc(N=Cc3c(O)ccc4cc(Br)ccc34)cc2[nH]1,inactive
10,NNC(=O)COc1ccccc1F,inactive
11,c1cncc(-c2nnc3n2N=C(c2cccs2)CS3)c1,inactive
12,S=C(Nc1ccccc1)N1CCn2cccc2C1c1cccnc1 (centres undefined),inactive
13,O=C(NCC1CCCO1)c1ccc2c(=O)n(-c3ccc(F)cc3)c(=S)[nH]c2c1 (centres undefined),inactive
14,CCN1C(=O)/C(=C/C=C2\C=CN(CC)c3ccccc32)SC1=S,inactive
15,Cc1cc(N2CCN(C)CC2)nc2ccc(NC(=S)N3CCCCC3)cc12,inactive
16,Cc1ccc(N=C2NC(=O)/C(=C/C=C/c3ccco3)S2)cc1,inactive
17,CC1C=CCC2C(=O)N(c3ccc(OC(=O)c4cccs4)cc3)C(=O)C12 (centres undefined),inactive
18,Cc1ccc(C)c(/C=C/C(=O)c2ccccc(=O)c2O)c1,inactive
19,OC(COc1ccc2ccccc2c1)CN1CCCC1 (centres undefined),inactive
20,CCCn1c(SCC(=O)Nc2ccccc2-c2ccccc2)nnc1-c1ccoc1C,inactive
21,O=C(O)c1ccc(NC2=C/C(=N/S(=O)(=O)c3ccccc3)c3ccccc3C2=O)cc1,inactive
22,O=C(c1cnccn1)N(Cc1cccs1)C1(C(=O)NC2CCCCC2)CCCCC1,inactive
23,CC(C)NS(=O)(=O)c1ccc(OCC(=O)Nc2ccc(F)cc2)cc1,inactive
